According to patent publication US12122756B2, “Biflavone compound against I-type herpes simplex virus, and preparation method therefor and use thereof” (priority 2022, dated 2024):
Where two headings read alike, the source gives them in different places. Marks after values point to notes of the source that are not given here.

Tests used:
Vero cells = test: Cytotoxic assay of tested drugs against Vero cells (CCK-8); type: cell-based, African green monkey; settings: for highest non-toxic concentration: Vero cells, CCK-8
Experimental: 3. Cytotoxic assay of tested drugs against Vero cells: Vero cells were seed in a 96 well plate at 3×10^4 cells/well. The next day, after growing into a monolayer, the test drug was diluted to obtain 8-9 concentrations and added to each well. Meanwhile, a normal control group was established, with 4 replicate wells for each group. After 72 hours, the toxicity of the test drug to Vero cells was measured using CCK-8 assay, and the highest non-toxic concentration and half toxic concentration (TC50) of the drug on the cells were calculated.

HSV-I = test: Cytopathic effect (CPE) assay: inhibition of pathological changes of Vero cells induced by HSV-I (CCK-8); type: cell-based, Herpes simplex virus type I; settings: for inhibitory effect on HSV-I induced cytopathic changes (in words): CPE method; for Inhibition rate (%) / OD value: n = 5
Experimental: (1) Determination of the inhibitory activities of the test drugs on pathological changes of Vero cells induced by HSV-I using the cytopathic effect (CPE) assay: Vero cells were seeded in a 96-well plate and grew into a monolayer the next day. 100TCID50 HSV-I was added to infect cells, and then the cell maintenance solution containing different concentrations of the test drug was replaced, and a cell control group was included. The cells were cultured in an incubator for 72 hours. Then, the inhibitory effect of the drug on virus-induced cytopathic changes was measured using the CCK-8 assay, and thus the 50% inhibiting concentration (IC50) of the drug was calculated.

[1] = Solubility (highest solubility used as starting concentration; water solubility)
[2] = 1st (highest) concentration (971, 1600, 2620, 390 μg·ml^−1 for Compounds 1-4), 72 h
[3] = 2nd concentration, 50% serial dilution from column-head concentration, 72 h
[4] = 3rd concentration, 50% serial dilution from column-head concentration, 72 h
[5] = 4th concentration, 50% serial dilution from column-head concentration, 72 h
[6] = 5th concentration, 50% serial dilution from column-head concentration, 72 h
[7] = 6th concentration, 50% serial dilution from column-head concentration, 72 h
[8] = 7th concentration, 50% serial dilution from column-head concentration, 72 h
[9] = 8th concentration, 50% serial dilution from column-head concentration, 72 h
[10] = 9th concentration, 50% serial dilution from column-head concentration, 72 h
[11] = Concentration 1 (3 concentrations, 50% dilution based on highest non-toxic concentration)

## COc1c(O)cc2occ(-c3ccc(O)c(S(=O)(=O)[O-])c3)c(=O)c2c1O.[Na+] [Compound 1, sodium tectorigenin-5′-sulphonate]
Vero cells
  TC50 on Vero cells: 390.312 µg/mL
Vero cells; [2]
  growth inhibition rate (%) on Vero cells: 57.86** %
Vero cells; [3]
  growth inhibition rate (%) on Vero cells: 49.99** %
Vero cells; [4]
  growth inhibition rate (%) on Vero cells: 42.06** %
Vero cells; [5]
  growth inhibition rate (%) on Vero cells: 39.97** %
Vero cells; [6]
  growth inhibition rate (%) on Vero cells: 34.95** %
Vero cells; [7]
  growth inhibition rate (%) on Vero cells: 28.48** %
Vero cells; [8]
  growth inhibition rate (%) on Vero cells: 27.14** %
Vero cells; [9]
  growth inhibition rate (%) on Vero cells: 25.37** %
Vero cells; [10]
  growth inhibition rate (%) on Vero cells: −1.57%
HSV-I
  inhibitory effect on HSV-I induced cytopathic changes (in words): the effect was not significant
HSV-I; [11]
  Inhibition rate (%): 4.41%
  OD value: 0.37 ± 0.04
HSV-I; Concentration 2
  Inhibition rate (%): 3.29%
  OD value: 0.37 ± 0.02
HSV-I; Concentration 3
  Inhibition rate (%): 2.26%
  OD value: 0.36 ± 0.03

## CCOc1ccc(-c2coc3cc(OCC)c(OC)c(O)c3c2=O)cc1S(=O)(=O)[O-].[Na+] [Compound 3, sodium 4,7′-diethyltectorigenin-5′-sulphonate]
Vero cells; [2]
  growth inhibition rate (%) on Vero cells: 45.06** %
Vero cells; [3]
  growth inhibition rate (%) on Vero cells: 40.80** %
Vero cells; [4]
  growth inhibition rate (%) on Vero cells: 36.94** %
Vero cells; [5]
  growth inhibition rate (%) on Vero cells: 34.23** %
Vero cells; [6]
  growth inhibition rate (%) on Vero cells: 32.36** %
Vero cells; [7]
  growth inhibition rate (%) on Vero cells: 27.12** %
Vero cells; [8]
  growth inhibition rate (%) on Vero cells: 25.55** %
Vero cells; [9]
  growth inhibition rate (%) on Vero cells: 22.06** %
Vero cells; [10]
  growth inhibition rate (%) on Vero cells: −0.24%
Vero cells; 72 h, CCK-8, Probit regression
  TC50 on Vero cells: 3020.44 µg/mL
Vero cells; 72 h
  highest non-toxic concentration: 3.496 µg/mL
HSV-I
  inhibitory effect on HSV-I induced cytopathic changes (in words): no significant inhibitory effect
HSV-I; [11]
  Inhibition rate (%): 6.20%
  OD value: 0.38 ± 0.05
HSV-I; Concentration 2
  Inhibition rate (%): 8.65%
  OD value: 0.39 ± 0.10
HSV-I; Concentration 3
  Inhibition rate (%): 4.09%
  OD value: 0.37 ± 0.03
[1]
  solubility: 2620 µg/mL

## CCOc1ccc(-c2coc3c(Cc4c(OCC)c(OC)c(O)c5c(=O)c(-c6ccc(OCC)c(S(=O)(=O)[O-])c6)coc45)c(OCC)c(OC)c(O)c3c2=O)cc1S(=O)(=O)[O-].[Na+].[Na+] [Compound 4, sodium 8,8″-methylene-di-(4,7′-diethyltectorigenin-5′-sulphonate)]
Vero cells; [2]
  growth inhibition rate (%) on Vero cells: 28.40** %
Vero cells; [3]
  growth inhibition rate (%) on Vero cells: 27.54** %
Vero cells; [4]
  growth inhibition rate (%) on Vero cells: 26.53** %
Vero cells; [5]
  growth inhibition rate (%) on Vero cells: 23.48** %
Vero cells; [6]
  growth inhibition rate (%) on Vero cells: 22.02** %
Vero cells; [7]
  growth inhibition rate (%) on Vero cells: 18.43** %
Vero cells; [8]
  growth inhibition rate (%) on Vero cells: 14.94** %
Vero cells; [9]
  growth inhibition rate (%) on Vero cells: 9.42%
Vero cells; [10]
  growth inhibition rate (%) on Vero cells: −23.23%
Vero cells; 72 h, CCK-8, Probit regression
  TC50 on Vero cells: 11308.7 µg/mL
Vero cells; 72 h
  highest non-toxic concentration: 0.864 µg/mL
HSV-I
  inhibitory effect on HSV-I induced cytopathic changes (in words): no significant inhibitory effect
HSV-I; [11]
  Inhibition rate (%): 5.96%
  OD value: 0.32 ± 0.02
HSV-I; Concentration 2
  Inhibition rate (%): 6.09%
  OD value: 0.32 ± 0.01
HSV-I; Concentration 3
  Inhibition rate (%): 5.99%
  OD value: 0.32 ± 0.01
[1]
  solubility: 390 µg/mL
